In brackets after ≈: the same amount, converted by molar mass. Activity calls are given as the source filed them. The rule behind the calls is not given here.
Assays:
Proteus vulgaris [1] = assay: Antibacterial activity against Proteus vulgaris by CLSI M7-A7 method; assay type: functional
Serratia marcescens [2] = assay: Antibacterial activity against levofloxacin susceptible Serratia marcescens assessed as percent susceptible isolates by CLSI M7-A7 method; assay type: functional
Pseudomonas aeruginosa [3] = assay: Antibacterial activity against non-ciprofloxacin-susceptible Pseudomonas aeruginosa assessed as percent susceptible isolates by CLSI M7-A7 method; assay type: functional
Serratia marcescens [4] = assay: Antibacterial activity against Serratia marcescens by CLSI M7-A7 method; assay type: functional
[5] = system: Stenotrophomonas maltophilia; assay: Antibacterial activity against levofloxacin-susceptible Stenotrophomonas maltophilia by CLSI M7-A7 method; assay type: functional
Citrobacter freundii [6] = assay: Antibacterial activity against Citrobacter freundii assessed as percent susceptible isolates by CLSI M7-A7 method; assay type: functional
[7] = system: Stenotrophomonas maltophilia; assay: Antibacterial activity against non-levofloxacin susceptible Stenotrophomonas maltophilia by CLSI M7-A7 method; assay type: functional
Proteus vulgaris [8] = assay: Antibacterial activity against Proteus vulgaris assessed as percent susceptible isolates by CLSI M7-A7 method; assay type: functional
Proteus mirabilis [9] = assay: Antibacterial activity against Proteus mirabilis assessed as percent susceptible isolates by CLSI M7-A7 method; assay type: functional
[10] = system: Stenotrophomonas maltophilia; assay: Antibacterial activity against non-levofloxacin susceptible Stenotrophomonas maltophilia assessed as percent susceptible isolates by CLSI M7-A7 method; assay type: functional
Acinetobacter lwoffii [11] = assay: Antibacterial activity against Acinetobacter lwoffii assessed as percent susceptible isolates by CLSI M7-A7 method; assay type: functional
Acinetobacter baumannii [12] = assay: Antibacterial activity against Acinetobacter baumannii by CLSI M7-A7 method; assay type: functional
Klebsiella pneumoniae [13] = assay: Antibacterial activity against Klebsiella pneumoniae assessed as percent susceptible isolates by CLSI M7-A7 method; assay type: functional
Enterobacter cloacae [14] = assay: Antibacterial activity against Enterobacter cloacae assessed as percent susceptible isolates by CLSI M7-A7 method; assay type: functional
[15] = system: Acinetobacter calcoaceticus; assay: Antibacterial activity against Acinetobacter calcoaceticus by CLSI M7-A7 method; assay type: functional
Enterobacter cloacae [16] = assay: Antibacterial activity against Enterobacter cloacae by CLSI M7-A7 method; assay type: functional
[17] = system: Acinetobacter calcoaceticus; assay: Antibacterial activity against Acinetobacter calcoaceticus assessed as percent susceptible isolates by CLSI M7-A7 method; assay type: functional
Acinetobacter lwoffii [18] = assay: Antibacterial activity against Acinetobacter lwoffii by CLSI M7-A7 method; assay type: functional
Pseudomonas aeruginosa [19] = assay: Antibacterial activity against non-ciprofloxacin-susceptible Pseudomonas aeruginosa by CLSI M7-A7 method; assay type: functional
Acinetobacter baumannii [20] = assay: Antibacterial activity against Acinetobacter baumannii assessed as percent susceptible isolates by CLSI M7-A7 method; assay type: functional
[21] = system: Stenotrophomonas maltophilia; assay: Antibacterial activity against levofloxacin-susceptible Stenotrophomonas maltophilia assessed as assessed as percent susceptible isolates by CLSI M7-A7 method; assay type: functional
Citrobacter freundii [22] = assay: Antibacterial activity against Citrobacter freundii by CLSI M7-A7 method; assay type: functional
Pseudomonas aeruginosa [23] = assay: Antibacterial activity against ciprofloxacin-susceptible Pseudomonas aeruginosa by CLSI M7-A7 method; assay type: functional
Pseudomonas aeruginosa [24] = assay: Antibacterial activity against ciprofloxacin-susceptible Pseudomonas aeruginosa assessed as percent susceptible isolates by CLSI M7-A7 method; assay type: functional
Klebsiella aerogenes [25] = assay: Antibacterial activity against Enterobacter aerogenes by CLSI M7-A7 method; assay type: functional
Proteus mirabilis [26] = assay: Antibacterial activity against Proteus mirabilis by CLSI M7-A7 method; assay type: functional
Klebsiella aerogenes [27] = assay: Antibacterial activity against Enterobacter aerogenes assessed as percent susceptible isolates by CLSI M7-A7 method; assay type: functional
Klebsiella pneumoniae [28] = assay: Antibacterial activity against Klebsiella pneumoniae by CLSI M7-A7 method; assay type: functional
Fusobacterium sp. [29] = assay: Antibacterial activity against Fusobacterium sp. by CLSI M11-A7 method; assay type: functional
Bacteroides fragilis [30] = assay: Antibacterial activity against Bacteroides fragilis assessed as percent susceptible isolates by CLSI M11-A7 method; assay type: functional
Cutibacterium acnes [31] = assay: Antibacterial activity against Propionibacterium acnes assessed as percent susceptible isolates by CLSI M11-A7 method; assay type: functional
Bacteroides fragilis [32] = assay: Antibacterial activity against Bacteroides fragilis by CLSI M11-A7 method; assay type: functional
Fusobacterium sp. [33] = assay: Antibacterial activity against Fusobacterium sp. assessed as percent susceptible isolates by CLSI M11-A7 method; assay type: functional
Clostridium perfringens = assay: Antibacterial activity against Clostridium perfringens by CLSI M11-A7 method; assay type: functional
Cutibacterium acnes [34] = assay: Antibacterial activity against Propionibacterium acnes by CLSI M11-A7 method; assay type: functional
Prevotella sp. [35] = assay: Antibacterial activity against Prevotella sp. by CLSI M11-A7 method; assay type: functional
Peptostreptococcus sp. [36] = assay: Antibacterial activity against Peptostreptococcus sp. assessed as percent susceptible isolates by CLSI M11-A7 method; assay type: functional
Prevotella sp. [37] = assay: Antibacterial activity against Prevotella sp. assessed as percent susceptible isolates by CLSI M11-A7 method; assay type: functional
Peptostreptococcus sp. [38] = assay: Antibacterial activity against Peptostreptococcus sp. by CLSI M11-A7 method; assay type: functional
[39] = system: Staphylococcus epidermidis
[40] = system: Staphylococcus epidermidis; remark: listed apart in the source

What does the source list for `C[C@@H](O)[C@H]1C(=O)N2C(C(=O)O)=C(SCCNC=N)C[C@H]12` [IMIPENEM ANHYDROUS]?
MIC50 (Proteus vulgaris [1]): 1 µg/mL (≈ 3.34 µM); MIC90 (Proteus vulgaris [1]): 2 µg/mL (≈ 6.68 µM); Activity (Serratia marcescens [2]): 91%; Activity (Pseudomonas aeruginosa [3]): 64.6%; MIC50 (Serratia marcescens [4]): 2 µg/mL (≈ 6.68 µM); MIC90 (Serratia marcescens [4]): 4 µg/mL (≈ 13.4 µM); MIC [5]: 0.25 µg/mL (≈ 0.835 µM); Activity (Citrobacter freundii [6]): 87%; MIC [7]: 1 µg/mL (≈ 3.34 µM); Activity (Proteus vulgaris [8]): 98%; Activity (Proteus mirabilis [9]): 92%; Activity [10]: 22.9%; Activity (Acinetobacter lwoffii [11]): 86%; MIC50 (Acinetobacter baumannii [12]): 2 µg/mL (≈ 6.68 µM); MIC90 (Acinetobacter baumannii [12]): > 8 µg/mL; Activity (Klebsiella pneumoniae [13]): 93%; Activity (Enterobacter cloacae [14]): 88%; MIC50 [15]: 1 µg/mL (≈ 3.34 µM); MIC90 [15]: > 64 µg/mL; MIC50 (Enterobacter cloacae [16]): 0.5 µg/mL (≈ 1.67 µM); MIC90 (Enterobacter cloacae [16]): 8 µg/mL (≈ 26.7 µM); Activity [17]: 77.8%; MIC50 (Acinetobacter lwoffii [18]): 0.25 µg/mL (≈ 0.835 µM); MIC90 (Acinetobacter lwoffii [18]): 8 µg/mL (≈ 26.7 µM); MIC50 (Pseudomonas aeruginosa [19]): 1 µg/mL (≈ 3.34 µM); MIC90 (Pseudomonas aeruginosa [19]): > 64 µg/mL; Activity (Acinetobacter baumannii [20]): 54.7%; Activity [21]: 38.5%; MIC50 (Citrobacter freundii [22]): 0.5 µg/mL (≈ 1.67 µM); MIC90 (Citrobacter freundii [22]): 8 µg/mL (≈ 26.7 µM); MIC50 (Pseudomonas aeruginosa [23]): 0.5 µg/mL (≈ 1.67 µM); MIC90 (Pseudomonas aeruginosa [23]): 1 µg/mL (≈ 3.34 µM); Activity (Pseudomonas aeruginosa [24]): 97.1%; MIC50 (Klebsiella aerogenes [25]): 0.5 µg/mL (≈ 1.67 µM); MIC90 (Klebsiella aerogenes [25]): 1 µg/mL (≈ 3.34 µM); MIC50 (Proteus mirabilis [26]): 1 µg/mL (≈ 3.34 µM); MIC90 (Proteus mirabilis [26]): 2 µg/mL (≈ 6.68 µM); Activity (Klebsiella aerogenes [27]): 88%; MIC50 (Klebsiella pneumoniae [28]): 0.25 µg/mL (≈ 0.835 µM); MIC90 (Klebsiella pneumoniae [28]): 0.5 µg/mL (≈ 1.67 µM)

Which results are given for `Cc1ncc([N+](=O)[O-])n1CCO` [METRONIDAZOLE]?
MIC50 (Fusobacterium sp. [29]): 0.25 µg/mL (≈ 1.46 µM); MIC90 (Fusobacterium sp. [29]): 1 µg/mL (≈ 5.84 µM); Activity (Bacteroides fragilis [30]): 100%; Activity (Cutibacterium acnes [31]): 0%; MIC (Bacteroides fragilis [32]): 2 µg/mL (≈ 11.7 µM); MIC50 (Bacteroides fragilis [32]): 2 µg/mL (≈ 11.7 µM); MIC90 (Bacteroides fragilis [32]): 2 µg/mL (≈ 11.7 µM); Activity (Fusobacterium sp. [33]): 100%; MIC50 (Clostridium perfringens): 2 µg/mL (≈ 11.7 µM); MIC90 (Clostridium perfringens): 4 µg/mL (≈ 23.4 µM); MIC (Cutibacterium acnes [34]): > 16 µg/mL; MIC50 (Cutibacterium acnes [34]): > 16 µg/mL; MIC90 (Cutibacterium acnes [34]): > 16 µg/mL; MIC50 (Prevotella sp. [35]): 4 µg/mL (≈ 23.4 µM); MIC90 (Prevotella sp. [35]): 4 µg/mL (≈ 23.4 µM); Activity (Peptostreptococcus sp. [36]): 98.1%; Activity (Prevotella sp. [37]): 100%; MIC50 (Peptostreptococcus sp. [38]): 0.5 µg/mL (≈ 2.92 µM); MIC90 (Peptostreptococcus sp. [38]): 1 µg/mL (≈ 5.84 µM)

For `COc1c(N2C[C@@H]3CCCN[C@@H]3C2)c(F)cc2c(=O)c(C(=O)O)cn(C3CC3)c12`, which MIC90 [39] is on record?
The MIC90 was “inactive”.

What about the MIC90 [40] of the same compound?
Its MIC90 is “inactive”.

— ChEMBL document CHEMBL1649565, “Besifloxacin, a novel fluoroquinolone, has broad-spectrum in vitro activity against aerobic and anaerobic bacteria” (Antimicrob Agents Chemother, 2009)
